Test system: 786-0 complex spheroids with HUVEC/MSC, growth % test/control
Assay: Anticancer human tumor 786-0 cell line growth inhibition [AhR];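 further: compound exposure lasted seven days before the read-out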
Settings: for IC50: curve of first compound; for viability, T/C: stronger effect = lower value
Method in brief: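 Agents were dosed in half-log steps down from roughly clinical Cmax, or from 10 microM where Cmax was unknown, alone and with AhR antagonists. Read-out: percent test/control growth of tumor spheroids containing HUVEC and MSC stromal cells.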

[1] = second compound 0.1 µM, first compound 0.0316 µM
[2] = second compound 0.1 µM, first compound 0.1 µM
[3] = second compound 0.316 µM, first compound 0.0316 µM
[4] = second compound 0.316 µM, first compound 0.1 µM
[5] = second compound 1 µM, first compound 0.0316 µM
[6] = second compound 1 µM, first compound 0.1 µM
[7] = second compound 3.16 µM, first compound 0.0316 µM
[8] = second compound 3.16 µM, first compound 0.1 µM
[9] = second compound 10 µM, first compound 0.0316 µM
[10] = second compound 10 µM, first compound 0.1 µM
[11] = second compound 0.1 µM, first compound 0.316 µM
[12] = second compound 0.1 µM, first compound 1 µM
[13] = second compound 0.1 µM, first compound 3.16 µM
[14] = second compound 0.1 µM, first compound 10 µM
[15] = second compound 0.316 µM, first compound 0.316 µM
[16] = second compound 0.316 µM, first compound 1 µM
[17] = second compound 0.316 µM, first compound 3.16 µM
[18] = second compound 0.316 µM, first compound 10 µM
[19] = second compound 1 µM, first compound 0.316 µM
[20] = second compound 1 µM, first compound 1 µM
[21] = second compound 1 µM, first compound 3.16 µM
[22] = second compound 1 µM, first compound 10 µM
[23] = second compound 3.16 µM, first compound 0.316 µM
[24] = second compound 3.16 µM, first compound 1 µM
[25] = second compound 3.16 µM, first compound 3.16 µM
[26] = second compound 3.16 µM, first compound 10 µM
[27] = second compound 10 µM, first compound 0.316 µM
[28] = second compound 10 µM, first compound 1 µM
[29] = second compound 10 µM, first compound 3.16 µM
[30] = second compound 10 µM, first compound 10 µM

Structure (SMILES) | IC50 (second compound 0.1 µM) | IC50 (second compound 0.316 µM) | IC50 (second compound 1 µM) | IC50 (second compound 3.16 µM) | IC50 (second compound 10 µM) | viability, T/C [1] | viability, T/C [2] | viability, T/C [3] | viability, T/C [4] | viability, T/C [5] | viability, T/C [6] | viability, T/C [7] | viability, T/C [8] | viability, T/C [9] | viability, T/C [10] | viability, T/C [11] | viability, T/C [12] | viability, T/C [13] | viability, T/C [14] | viability, T/C [15] | further results
CC[C@@]1(O)C(=O)OCc2c1cc1n(c2=O)Cc2cc3c(CN(C)C)c(O)ccc3nc2-1 + Cc1cncc(-c2nc(NCCc3c[nH]c4ccccc34)c3ncn(C(C)C)c3n2)c1 | 61.6 nM | 64.2 nM | 56.1 nM | 28.1 nM | < 0.316 nM | 91.1% | 20.1% | 99% | 19.2% | 83.5% | 16% | 46.5% | 9.39% | 1.61% | 0.53% |  |  |  |  |  | viability, T/C (second compound 0.1 µM, first compound 0.000316 µM): 116%; viability, T/C (second compound 0.1 µM, first compound 0.001 µM): 118%; viability, T/C (second compound 0.1 µM, first compound 0.00316 µM): 117%; viability, T/C (second compound 0.1 µM, first compound 0.01 µM): 115%; viability, T/C (second compound 0.316 µM, first compound 0.000316 µM): 113%; viability, T/C (second compound 0.316 µM, first compound 0.001 µM): 107%; viability, T/C (second compound 0.316 µM, first compound 0.00316 µM): 119%; viability, T/C (second compound 0.316 µM, first compound 0.01 µM): 112%; viability, T/C (second compound 1 µM, first compound 0.000316 µM): 109%; viability, T/C (second compound 1 µM, first compound 0.001 µM): 109%; viability, T/C (second compound 1 µM, first compound 0.00316 µM): 103%; viability, T/C (second compound 1 µM, first compound 0.01 µM): 108%; viability, T/C (second compound 3.16 µM, first compound 0.000316 µM): 73.4%; viability, T/C (second compound 3.16 µM, first compound 0.001 µM): 78.5%; viability, T/C (second compound 3.16 µM, first compound 0.00316 µM): 88.8%; viability, T/C (second compound 3.16 µM, first compound 0.01 µM): 83%; viability, T/C (second compound 10 µM, first compound 0.000316 µM): 15.5%; viability, T/C (second compound 10 µM, first compound 0.001 µM): 11%; viability, T/C (second compound 10 µM, first compound 0.00316 µM): 11.8%; viability, T/C (second compound 10 µM, first compound 0.01 µM): 4.85%
COc1cc(C2c3cc4c(cc3C(OC3OC5COC(C)OC5C(O)C3O)C3COC(=O)C23)OCO4)cc(OC)c1O (stereo not given) + Cc1cncc(-c2nc(NCCc3c[nH]c4ccccc34)c3ncn(C(C)C)c3n2)c1 | 1150 nM | 1290 nM | 1320 nM | 444 nM | < 31.6 nM | 114% | 127% | 128% | 121% | 107% | 117% | 81.3% | 79.1% | 6.55% | 4.82% | 87% | 49.9% | 35.5% | 9.86% | 86.8% | viability, T/C [16]: 52.9%; viability, T/C [17]: 33.4%; viability, T/C [18]: 7.71%; viability, T/C [19]: 85.2%; viability, T/C [20]: 53.3%; viability, T/C [21]: 32.3%; viability, T/C [22]: 4.59%; viability, T/C [23]: 56.2%; viability, T/C [24]: 30.5%; viability, T/C [25]: 15.8%; viability, T/C [26]: 2.3%; viability, T/C [27]: 1.24%; viability, T/C [28]: 0.35%; viability, T/C [29]: 0.49%; viability, T/C [30]: 0.43%
Nc1ccn(C2OC(CO)C(O)C2(F)F)c(=O)n1 (stereo not given) + Cc1cncc(-c2nc(NCCc3c[nH]c4ccccc34)c3ncn(C(C)C)c3n2)c1 | < 31.6 nM | < 31.6 nM | < 31.6 nM | < 31.6 nM | < 31.6 nM | 6.61% | 6.32% | 7.89% | 7.93% | 6.44% | 6.22% | 2.07% | 1.87% | 0.4% | 0.29% | 4.8% | 5.2% | 8.48% | 7.97% | 6.11% | viability, T/C [16]: 6.04%; viability, T/C [17]: 7.74%; viability, T/C [18]: 6.69%; viability, T/C [19]: 6.31%; viability, T/C [20]: 5.01%; viability, T/C [21]: 6.11%; viability, T/C [22]: 5.37%; viability, T/C [23]: 3.18%; viability, T/C [24]: 1.68%; viability, T/C [25]: 3.27%; viability, T/C [26]: 7.69%; viability, T/C [27]: 0.24%; viability, T/C [28]: 0.33%; viability, T/C [29]: 0.61%; viability, T/C [30]: 0.37%
